Several values for one entry are separate records, joined by “and”; a condition that tells them apart may be missing. Identical values can stand only once. Inconclusive results and toxic doses are left out.
Tested on: P388 leukemia ip, CD2F1 mice, survival T/C
Test: NCI In Vivo Anticancer Drug Screen. Data for tumor model P388 Leukemia (intraperitoneal) in CD2F1 (CDF1) mice
Details: endpoint: median survival time, higher = longer survival
How it was run: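 Mice carrying the transplanted tumor received test compound or vehicle. Survival was recorded in each group, and the value is the treated-group measurement divided by that of the vehicle-treated control group.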

[1] = dose: 50.0 mg/kg/injection, schedule: Q01DX009 (ip), vehicle: saline with Tween-80
[2] = dose: 100.0 mg/kg/injection, schedule: Q01DX009 (ip), vehicle: saline with Tween-80
[3] = dose: 100.0 mg/kg/injection, schedule: Q01DX009 (ip), vehicle: saline
[4] = dose: 200.0 mg/kg/injection, schedule: Q01DX009 (ip), vehicle: saline with Tween-80
[5] = dose: 200.0 mg/kg/injection, schedule: Q01DX009 (ip), vehicle: saline
[6] = dose: 50.0 mg/kg/injection, schedule: Q01DX009 (ip), vehicle: saline
[7] = dose: 100.0 mg/kg/injection, schedule: Q01DX005 (ip), vehicle: saline with Tween-80
[8] = dose: 200.0 mg/kg/injection, schedule: Q01DX005 (ip), vehicle: saline with Tween-80

## CN(C)C1CC(C)(O)Cc2cc3c(c(O)c21)C(=O)c1c(O)cc2c(c1C3=O)OC1OC2(C)C(O)C(N(C)C)C1O (stereo not given)
dose: 3.12 mg/kg/injection, schedule: Q01DX009 (ip), vehicle: other
  T/C: 103 % of control
dose: 6.25 mg/kg/injection, schedule: Q01DX009 (ip), vehicle: other
  T/C: 120 % of control
dose: 50.0 mg/kg/injection, schedule: Q01DX009 (ip), vehicle: other
  T/C: 153 % of control

## Cc1ccc(S(=O)(=O)N/N=C(\Cc2ccccc2)c2ccc(Br)cc2)cc1
[1]
  T/C: 99 % of control
[2]
  T/C: 99 % of control
[3]
  T/C: 98 % of control
[4]
  T/C: 90 % of control
[5]
  T/C: 98 % of control

## CCCCCCSc1nc2ccc(NC(C)=O)cc2s1
dose: 50.0 mg/kg/injection, schedule: Q01DX009 (ip), vehicle: Klucel (hydroxypropylcellulose) (HPC)
  T/C: 107 % of control
dose: 100.0 mg/kg/injection, schedule: Q01DX009 (ip), vehicle: Klucel (hydroxypropylcellulose) (HPC)
  T/C: 90 % of control

## Clc1cccc(NCNC2Nc3ccccc3N2)c1
dose: 15.0 mg/kg/injection, schedule: Q01DX005 (ip), vehicle: saline with Tween-80
  T/C: 96 % of control
dose: 30.0 mg/kg/injection, schedule: Q01DX005 (ip), vehicle: saline with Tween-80
  T/C: 97 % of control
dose: 60.0 mg/kg/injection, schedule: Q01DX005 (ip), vehicle: saline with Tween-80
  T/C: 93 % of control

## CCCCCCC(=O)/C=C/c1cccc(OCOCC)c1
[1]
  T/C: 111 % of control and 113 % of control and 122 % of control
[2]
  T/C: 115 % of control and 122 % of control
[4]
  T/C: 108 % of control and 119 % of control

## COc1ccc(Cl)c2c(=O)c3ccc4c(c3[nH]c12)C(=O)c1ccccc1C4=O
dose: 60.0 mg/kg/injection, schedule: Q01DX005 (ip), vehicle: Klucel (hydroxypropylcellulose) (HPC)
  T/C: 96 % of control
dose: 120.0 mg/kg/injection, schedule: Q01DX005 (ip), vehicle: Klucel (hydroxypropylcellulose) (HPC)
  T/C: 91 % of control
dose: 240.0 mg/kg/injection, schedule: Q01DX005 (ip), vehicle: Klucel (hydroxypropylcellulose) (HPC)
  T/C: 86 % of control

## CN(C)CCCNC(CC#N)CCC#N (stereo not given)
[6]
  T/C: 109 % of control
[3]
  T/C: 104 % of control
[5]
  T/C: 109 % of control

## NC(N)=NS(=O)(=O)c1ccc(NCc2c3ccccc3nc3ccccc23)cc1
dose: 3.12 mg/kg/injection, schedule: Q04DX002 (ip), vehicle: Klucel (hydroxypropylcellulose) (HPC)
  T/C: 114 % of control
dose: 12.5 mg/kg/injection, schedule: Q04DX002 (ip), vehicle: Klucel (hydroxypropylcellulose) (HPC)
  T/C: 165 % of control
dose: 25.0 mg/kg/injection, schedule: Q04DX002 (ip), vehicle: Klucel (hydroxypropylcellulose) (HPC)
  T/C: 172 % of control
dose: 50.0 mg/kg/injection, schedule: Q04DX002 (ip), vehicle: Klucel (hydroxypropylcellulose) (HPC)
  T/C: 166 % of control
dose: 50.0 mg/kg/injection, schedule: Q04DX003 (ip), vehicle: Klucel (hydroxypropylcellulose) (HPC)
  T/C: 151 % of control and 156 % of control
dose: 100.0 mg/kg/injection, schedule: Q04DX002 (ip), vehicle: Klucel (hydroxypropylcellulose) (HPC)
  T/C: 174 % of control
dose: 100.0 mg/kg/injection, schedule: Q04DX003 (ip), vehicle: Klucel (hydroxypropylcellulose) (HPC)
  T/C: 168 % of control and 169 % of control
dose: 200.0 mg/kg/injection, schedule: Q04DX002 (ip), vehicle: Klucel (hydroxypropylcellulose) (HPC)
  T/C: 151 % of control
dose: 200.0 mg/kg/injection, schedule: Q04DX003 (ip), vehicle: Klucel (hydroxypropylcellulose) (HPC)
  T/C: 174 % of control and 180 % of control
dose: 400.0 mg/kg/injection, schedule: Q04DX002 (ip), vehicle: Klucel (hydroxypropylcellulose) (HPC)
  T/C: 169 % of control
dose: 400.0 mg/kg/injection, schedule: Q04DX003 (ip), vehicle: Klucel (hydroxypropylcellulose) (HPC)
  T/C: 155 % of control and 202 % of control and 207 % of control
dose: 800.0 mg/kg/injection, schedule: Q04DX002 (ip), vehicle: Klucel (hydroxypropylcellulose) (HPC)
  T/C: 161 % of control
dose: 800.0 mg/kg/injection, schedule: Q04DX003 (ip), vehicle: Klucel (hydroxypropylcellulose) (HPC)
  T/C: 162 % of control and 210 % of control and 250 % of control

## CC12CCC3C(CCC4N(CCCl)CCCC34C)C1CCC2O (stereo not given)
dose: 25.0 mg/kg/injection, schedule: Q01DX001 (ip), vehicle: saline
  T/C: 101 % of control
dose: 50.0 mg/kg/injection, schedule: Q01DX001 (ip), vehicle: saline
  T/C: 109 % of control
dose: 100.0 mg/kg/injection, schedule: Q01DX001 (ip), vehicle: saline
  T/C: 111 % of control

## CN(C)CC(CN(C)C)C(=O)c1ccc(Cl)c(Cl)c1
dose: 12.5 mg/kg/injection, schedule: Q01DX005 (ip), vehicle: saline
  T/C: 108 % of control
dose: 25.0 mg/kg/injection, schedule: Q01DX005 (ip), vehicle: saline
  T/C: 105 % of control
dose: 50.0 mg/kg/injection, schedule: Q01DX005 (ip), vehicle: saline
  T/C: 100 % of control and 104 % of control

## O=C(Nc1ccc2[nH]c3ccccc3c2c1)c1ccccc1Cl
dose: 50.0 mg/kg/injection, schedule: Q01DX005 (ip), vehicle: Klucel (hydroxypropylcellulose) (HPC)
  T/C: 93 % of control
dose: 100.0 mg/kg/injection, schedule: Q01DX005 (ip), vehicle: Klucel (hydroxypropylcellulose) (HPC)
  T/C: 95 % of control
dose: 200.0 mg/kg/injection, schedule: Q01DX005 (ip), vehicle: Klucel (hydroxypropylcellulose) (HPC)
  T/C: 90 % of control

## CNCCN1CCC(Cc2ccccc2)CC1
[6]
  T/C: 100 % of control
[3]
  T/C: 100 % of control

## CC(C)=CCC/C(C)=C/COc1cc(O)c2c(c1)C(=O)c1cc(C)cc(O)c1C2=O
dose: 5.0 mg/kg/injection, schedule: Q01DX009 (ip), vehicle: DMSO
  T/C: 100 % of control
dose: 10.0 mg/kg/injection, schedule: Q01DX009 (ip), vehicle: DMSO
  T/C: 97 % of control
dose: 20.0 mg/kg/injection, schedule: Q01DX009 (ip), vehicle: DMSO
  T/C: 97 % of control

## COc1ccc(/C=N/N=c2/sc3ccccc3n2CC(=O)O)cc1
dose: 100.0 mg/kg/injection, schedule: Q01DX001 (ip), vehicle: saline with Tween-80
  T/C: 108 % of control
dose: 200.0 mg/kg/injection, schedule: Q01DX001 (ip), vehicle: saline with Tween-80
  T/C: 87 % of control

## O=C(O)c1ccccc1Nc1cccc([N+](=O)[O-])c1
dose: 25.0 mg/kg/injection, schedule: Q04DX003 (ip), vehicle: saline
  T/C: 99 % of control
dose: 50.0 mg/kg/injection, schedule: Q04DX003 (ip), vehicle: saline
  T/C: 114 % of control
dose: 100.0 mg/kg/injection, schedule: Q04DX003 (ip), vehicle: saline
  T/C: 114 % of control
dose: 200.0 mg/kg/injection, schedule: Q04DX003 (ip), vehicle: saline
  T/C: 112 % of control

## C=CCN(CC=C)C1CCOC(OC)C1O (stereo not given)
dose: 30.0 mg/kg/injection, schedule: Q01DX005 (ip), vehicle: saline
  T/C: 100 % of control and 112 % of control
dose: 60.0 mg/kg/injection, schedule: Q01DX005 (ip), vehicle: saline
  T/C: 113 % of control [middle of 4 runs]
dose: 120.0 mg/kg/injection, schedule: Q01DX005 (ip), vehicle: saline
  T/C: 119 % of control [middle of 4 runs]
dose: 240.0 mg/kg/injection, schedule: Q01DX005 (ip), vehicle: saline
  T/C: 99 % of control and 119 % of control and 123 % of control

## Nc1ccc(NCCCC2CCCN3CCCCC23)c2c(=O)c3ccccc3sc12 (stereo not given)
dose: 13.5 mg/kg/injection, schedule: Q01DX005 (ip), vehicle: saline with Tween-80
  T/C: 104 % of control
dose: 27.0 mg/kg/injection, schedule: Q01DX005 (ip), vehicle: saline with Tween-80
  T/C: 91 % of control
dose: 54.0 mg/kg/injection, schedule: Q01DX005 (ip), vehicle: saline with Tween-80
  T/C: 101 % of control
[7]
  T/C: 110 % of control
dose: 108.0 mg/kg/injection, schedule: Q01DX005 (ip), vehicle: saline with Tween-80
  T/C: 107 % of control
[8]
  T/C: 120 % of control

## O=c1c(CN(CCO)CCO)c(-c2ccccc2)sc2ccccc12
dose: 12.5 mg/kg/injection, schedule: Q04DX002 (ip), vehicle: saline with Tween-80
  T/C: 100 % of control
dose: 25.0 mg/kg/injection, schedule: Q04DX002 (ip), vehicle: saline with Tween-80
  T/C: 100 % of control
dose: 50.0 mg/kg/injection, schedule: Q04DX002 (ip), vehicle: saline with Tween-80
  T/C: 97 % of control
dose: 100.0 mg/kg/injection, schedule: Q04DX002 (ip), vehicle: saline with Tween-80
  T/C: 91 % of control

## O=C1c2ccccc2-c2c1c1ccccc1c(=O)n2CCO
dose: 50.0 mg/kg/injection, schedule: Q01DX005 (ip), vehicle: saline with Tween-80
  T/C: 96 % of control
[7]
  T/C: 94 % of control
[8]
  T/C: 105 % of control

## CC(CC(=O)c1cccc([N+](=O)[O-])c1)=NCC(C)N=C(C)CC(=O)c1cccc([N+](=O)[O-])c1 (stereo not given)
dose: 100.0 mg/kg/injection, schedule: Q04DX003 (ip), vehicle: saline with Tween-80
  T/C: 98 % of control
dose: 200.0 mg/kg/injection, schedule: Q04DX003 (ip), vehicle: saline with Tween-80
  T/C: 101 % of control
dose: 400.0 mg/kg/injection, schedule: Q04DX003 (ip), vehicle: saline with Tween-80
  T/C: 106 % of control

Reference: PubChem BioAssay AID330 (DTP/NCI, 2004)
